We go through ten molecules from PMC5460201, “Bacterial protease uses distinct thermodynamic signatures for substrate recognition” (Scientific Reports, 2017).

Usually Kd stands for a measure of binding affinity in units of concentration. A high value points to weaker binding. Broadly, the stoichiometry N is a count of units in the complex or per binding partner.

In data set [1] the target is Porphyromonas endodontalis dipeptidyl peptidase 11, PeDPP11_(22-717) S652A (Porphyromonas endodontalis) (UniProt F8WQK8). Nature of the data set: ITC; peptide injected into PeDPP11 in the cell; 10 mM Hepes-NaOH pH 7.4, 100 mM NaCl; 25 °C; one-site binding model.
The test system of data set [2] is cAMP-dependent protein kinase A (PKA-C). The note with it: NMR and molecular dynamics; ref [40]; cited from earlier work. The source says:
Due to experimental challenges, the role of conformational entropy in molecular recognition by proteins has begun to be elucidated only recently, mainly by nuclear magnetic resonance (NMR) relaxation methods. Using NMR techniques and molecular dynamics simulations, Veglia and colleagues observed in cAMP-dependent protein kinase A (PKA-C) a similar binding mode to that of DPP11. […] Conversely, binding of the inhibitor PKI5-24 (protein ki ...

The target of data set [3] is T1, PeDPP11 (PeDPP11_22-717 S652A) (Porphyromonas endodontalis, UniProt F8WQK8, S652A).
T1 construct: genes encoding for C-terminal 6xHis-tagged PeDPP11_22-717 S652A and PgDPP11_22-720 S655A in the pET-22b(+) vector; 6xHis (C); made in house; host or cells: E. coli BL21(DE3)pLysS
Nature of the data set: Isothermal titration calorimetry (ITC) of peptide binding to PeDPP11. As to the method:
All experiments were carried out in 10 mM Hepes-NaOH pH 7.4, 100 mM NaCl. Both the enzymes and the peptides were dissolved in the same buffer. The bindings were analysed with a MicroCal^TM iTC200 microcalorimeter (GE Healthcare, Life Sciences) equilibrated at the respective temperature. […] Every injection was carried out over a period of 4 s with a spacing of 110 s between the injections. […] These corrected values were plotted against the ratio peptide vs. protein concentration in the cell to generate the binding isotherm. Nonlinear least-squares fitting using Origin version 7.0 (Microcal) was used to obtain the association constants (K a), heats of binding (ΔH) and stoichiometries. […] The reported values are averages of at least two independent measurements.
Background: In ITC the heat of successive injections is recorded.

The data set “SEC-MALS” concerns the molecule itself. The data set is described as follows: SEC-MALS.

Peptide text beside a SMILES is read from it.

Take dipeptide LD: the dH in data set [1] was -22 kJ/mol.

In the case of PKI5-24, in data set [2], the “effect on PKA-C protein dynamics” value is listed as “stabilizes the protein, quenching the enzyme dynamics” and the “thermodynamic signature of binding to PKA-C” value was “enthalpically driven”.

With dipeptide Arg-Asp, the dH in data set [1] was -15.5 kJ/mol.

The molecule substrate peptide LDL yielded a dH in data set [1] of 17 kJ/mol.

Consider `CC(C)C[C@H](N)C(=O)N[C@@H](CC(=O)O)C(=O)O` [LD] (H-Leu-Asp-OH), for which the Kd in data set [3] (10 °C (283 K), 10 mM Hepes-NaOH pH 7.4, 100 mM NaCl, 1.28 mM LD to 120 μM PeDPP11, averages of at least two independent measurements) was 0.5 ± 0.1 µM; in data set [3] (20 °C (293 K), 10 mM Hepes-NaOH pH 7.4, 100 mM NaCl, averages of at least two independent measurements) it was 1 ± 0.3 µM.

On to “PLN1-20: substrate PLN1-20 (phospholamban) of PKA-C (MEKVQYLTRSAIRRASTIEM; UniProt P26678 1-20, looked up, fragment)”, for which, in data set [2], the “effect on PKA-C protein dynamics” value is reported as “increased conformational dynamics” and the “thermodynamic signature of binding to PKA-C” value is reported as “entropically driven”.

Arg-Asp [RD] had a ΔH bind in data set [3] (25 °C, 10 mM Hepes-NaOH pH 7.4, 100 mM NaCl, 600 μM LDVW to 60 μM, 810 μM LD to 75 μM, 1 mM LDL to 75 μM, 1.0 mM RD to 80 μM PeDPP11, averages of at least two independent measurements) of -15.5 kJ/mol. For the same molecule, the “change in entropy on binding” value in data set [3] (25 °C, due to water displacement caused by peptide binding and concomitant domain motion) is “favourable change in entropy”. The “thermodynamic signature of binding” value in data set [3] (25 °C, pH 7.4) was “enthalpy-driven process”.

In data set [3] (15 °C (288 K), 10 mM Hepes-NaOH pH 7.4, 100 mM NaCl, averages of at least two independent measurements), `CC(C)C[C@H](N)C(=O)N[C@@H](CC(=O)O)C(=O)N[C@H](C(=O)N[C@@H](Cc1c[nH]c2ccccc12)C(=O)O)C(C)C` [LDVW, Leu-Asp-Val-Trp] (H-LDVW-OH) yielded a Kd of 9 ± 0.7 µM.

substrate peptide Leu-Asp-Val-Trp gave a dH in data set [1] of 23.8 kJ/mol.

B1: Porphyromonas endodontalis dipeptidyl peptidase 11, PeDPP11_(22-717) S652A (enzyme)
chain: DGGMWLMQQINGQVARMKSLGMQLEAADIYNPNGSSLKDAVVMFDGGCTGVLVSNQGLLLTNHHCGYDQIQKHSSVQHNYLKDGFWSYSLAEELVNPGLEVEIVDEITDVTAAVKKELERIKKPSGLEFLSPRYLSSLAPEIVGKKAASRPGYRYEIKAFYGGNRYYMFTKKVFRDVRLVAAPPSSIGKFGSDTDNWAWPRHTGDFSIFRLYADKNGNPAEYSKDNVPYRPKRWVKVNAQGVKEGDFALIMGYPGTTYKFFTADEVTEWSEIDNNIRIEMRGILQDVMLREMLADPKINIMYAAKYASSQNGYKRAQGANWAIRRRSLREIKLAQQQEVLAWAKQKGIATTEEAVRAISKAIEGRQDLRMRQRYLLEGILMGIEMSNAPAADSDIADHWDDPARREAGLQSIRKQFEAFFNKDYSPEVEKDQLAIALLTRYAERIPAEKQPISIREGIAEYGSAKAYVEMIFDKSIYASRERFEEFMKNPDRDRLLRDPMSRFAASVAYEHQKLAKEVAAFDAPLAAAQRSYVASVLDMKGQPNLAPDANLTLRFTYGEIKGYQPRDVVTYGAKSTLEGVMEKEDPNNWEYVVDPKLKALYEAKNYGRYANSDGSMPVNFCATTHTTGGNAGSPVMNARGELIGLNFDRNWEGVGGDIEYLPNYQRSIILDIRYLLFIIDKFAGCQRLIDEIQPQF
notes: also called PeDPP11_(altconf); source: E. coli BL21(DE3)pLysS, purified (HisTrap, SEC)
As for B1, the “stoichiometry N” value in the data set “SEC-MALS” stood at 2.
